Test results from publication PMC4718634, “Murine GPRC6A Mediates Cellular Responses to L-Amino Acids, but Not Osteocalcin Variants” (PLoS ONE, 2016).
“Also recorded” adds a separate entry of the source. Read-outs that look alike come from different tables or passages of the source.

What was measured:
[1] = biological target: T1, mGPRC6A (mouse GPRC6A) (Mus musculus, UniProt Q8K4Z6); assay: Inositol phosphate (IP-One HTRF) accumulation, FlpIn-TREx-HEK293-mGPRC6A cells; assay type: cell-based; conditions: NPS-2143 30 μM; Fig 1C
T1 sequence (Q8K4Z6 21-928): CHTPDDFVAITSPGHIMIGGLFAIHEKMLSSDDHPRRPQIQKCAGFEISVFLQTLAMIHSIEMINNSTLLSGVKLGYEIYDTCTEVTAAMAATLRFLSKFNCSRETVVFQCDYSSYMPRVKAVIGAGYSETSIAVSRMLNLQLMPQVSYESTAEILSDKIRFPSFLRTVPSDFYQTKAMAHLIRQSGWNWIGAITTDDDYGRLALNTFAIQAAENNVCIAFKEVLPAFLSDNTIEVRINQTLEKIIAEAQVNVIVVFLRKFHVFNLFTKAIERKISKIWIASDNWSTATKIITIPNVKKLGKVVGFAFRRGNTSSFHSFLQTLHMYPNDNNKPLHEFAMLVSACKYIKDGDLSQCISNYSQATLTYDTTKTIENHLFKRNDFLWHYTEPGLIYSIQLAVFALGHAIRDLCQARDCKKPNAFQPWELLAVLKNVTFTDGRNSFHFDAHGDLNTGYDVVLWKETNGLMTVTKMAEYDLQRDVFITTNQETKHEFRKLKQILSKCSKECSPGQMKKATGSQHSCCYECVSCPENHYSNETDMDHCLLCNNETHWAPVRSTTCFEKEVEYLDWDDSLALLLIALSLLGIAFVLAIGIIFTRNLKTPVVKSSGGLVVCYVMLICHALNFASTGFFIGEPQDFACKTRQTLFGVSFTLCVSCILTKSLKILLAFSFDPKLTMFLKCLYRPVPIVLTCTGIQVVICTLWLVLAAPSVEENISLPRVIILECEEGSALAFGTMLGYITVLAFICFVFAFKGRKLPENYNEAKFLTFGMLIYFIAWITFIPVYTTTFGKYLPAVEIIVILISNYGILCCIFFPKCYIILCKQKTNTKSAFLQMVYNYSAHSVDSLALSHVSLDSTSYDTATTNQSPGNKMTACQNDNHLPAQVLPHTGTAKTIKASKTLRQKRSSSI
Procedure: pcDNA 5/FRT/TO constructs were isogenically integrated into a FlpIn-TREx-HEK293 cell line (Life Technologies). FlpIn-TREx-HEK293-mGPRC6A and FlpIn-TREx-HEK293-hGPRC6A cells were then selected using 600 μg/ml hygromycin and 5 μg/ml blasticidin and grown in culture medium consisting of Dulbecco’s Modified Eagle Medium (DMEM), supplemented with 10% (v/v) foetal bovine serum (FBS) at 37°C in 5% CO2 and were sub-cultured in a 1:3 ratio every 3–4 days. Cells were cultured overnight in the presence of 1 μg/ml tetracycline to induce GPRC6A expression. […] 48 h after transfection, cells were selected using 3 μg/ml puromycin and grown as above.
Inositol phosphate (IPX) accumulation experiments were performed using the IP-One HTRF® assay kit (Cisbio, France). Briefly, 24h after transfection with G proteins (as above), 10^5 cells were seeded per well in PDL-coated, 96-well white plates and incubated overnight. Cells were then washed 2 x 2h at 37°C in HBSS buffer (pH 7.2) containing 20 mM HEPES, 3.5 mM NaHCO3, 1 mM CaCl2 and 0.1% (w/v) BSA. Test compounds were then prepared in the kit stimulation buffer containing 2 mM CaCl2; cells were then incubated with 70 μl of drugs for 30 min, after which 15 μl of both IP1-D2 and Ab-Cryp were added to the cells, followed by a 1 h incubation at RT. Plates were read using an Envision plate reader (Perkin Elmer), using an HTRF protocol. Results were calculated from the 665nm / 620nm HTRF ratio (Ratio = A665nm/A620nm x 10^4) and expressed as a percentage of the maximal response obtained.
(§1) Concentration-response data were analysed using a three or four parameter logistic function (Motulsky & Christopoulos, 2004) to generate estimates of agonist potency (LogEC50). Data for all HEK293 assays represent the mean ± SEM of at least three independent experiments (except cell impedance, n = 2). For GLP-1 release, the data represent mean ± SEM of three to five independent experiments (except for OCN, wash; n = 2). For insulin release assays, data represent the mean ± SEM of three independent experiments (except for islet studies; n = 2). Insulin release data were normalised to the response to vehicle in either low or high [glucose]. Statistical analysis for GLP-1 release data were performed by one-way ANOVA, followed by Sidak’s multiple comparisons test (treating wash / no wash datasets separately). Statistical analyses for insulin release data were performed by two-way ANOVA (with [glucose] and drug treatment as group variables), followed by Sidak’s multiple comparisons test. Where only high [glucose] groups were evaluated, statistical analysis was by one-way ANOVA followed by Sidak’s multiple comparisons test.

[2] = tested on: GPRC6A; conditions: bind in the 7TM domain; ref [3], [4]; cited from earlier work
Excerpt: GPRC6A is a class C G protein-coupled receptor (GPCR) that has been cloned from human, mouse and rat. The receptor was initially deorphanised by fusion of its large N-terminal domain to the heptahelical and C-terminal region of the related goldfish 5.24 receptor [1]. […] These ligands are thought to bind in the N-terminal domain of the receptor [2] in a manner analogous to the binding of L-glutamate to metabotropic glutamate receptors. Small molecules, ...

[3] = tested on: GLUTag cells; assay: GLP-1 release from GLUTag cells; assay type: cell-based, murine; conditions: NPS-2143 10 μM, 30 min pre-treatment; ^P < 0.05 vs L-ornithine alone; Fig 6A
Procedure: Intestinal L-cell model GLUTag cells were seeded in 24-well plates coated with Matrigel and incubated for 6 days in DMEM with 10% FBS, 100 U/ml penicillin, 100 μg/ml streptomycin at 37°C in 5% CO2 and grown for 4–5 days. Where indicated, cells were washed (1 or 2 x 1h) with Krebs-HEPES buffer (20 mM HEPES, 118 mM NaCl, 4.7 mM KCl, 1.2 mM MgSO4, 5 mM NaHCO3, 1.2 mM KH2PO4, 2.5 mM CaCl2, 5.5 mM glucose, 0.2% BSA (w/v), pH 7.2) containing vildagliptin (300 μM) prior to addition of test compounds in the same buffer. After 2 h incubation at 37°C in 5% CO2, the supernatant was recovered and centrifuged at 500 rpm for 5 min. Where used, NPS-2143 pre-treatment was for 30 min.
GLP-1 content in the cell supernatant was measured by ELISA (EGLP-35K, Millipore), according to manufacturer’s instructions after overnight incubation of 15 μl supernatant in 100 μl Krebs-HEPES buffer at 4°C. After 5 x washes, 200 μl of detection conjugate was added and incubated for 2 h at RT. After 3 x washes the reaction was developed with 200 μl of diluted substrate (1:200) for 20 min and terminated by addition of 50 μl stop solution. After 5 min, fluorescence was then measured using 355 nm excitation and 460 nm emission, transforming the obtained signal into pmol GLP-1/well/ml and corrected for GLUTag cell protein content as determined using the method of Bradford (1976).
as §1

[4] = tested on: MIN6 cells; assay: Insulin release from MIN6 cells; assay type: cell-based, murine; conditions: NPS-2143 10 μM; ^^P < 0.01 vs L-ornithine alone; Fig 6B
Procedure: MIN6 or βTC-6 cells were seeded in 24-well plates at 170,000 cells per well in DMEM (containing 4.5g/L glucose, 10 mM HEPES, 100 U/ml penicillin, 100 μg/ml streptomycin and 15% de-complemented FBS) and incubated at 37°C / 5% CO2 for 72 h. Cells were then washed with 500 μl PBS and incubated in 500 μl deprivation media (DMEM with zero glucose, 10 mM HEPES, 1 mM Na-pyruvate, 100 U/ml penicillin, 100 μg/ml streptomycin, 15% de-complemented FBS) for 2 h at 37°C. Media was aspirated and after washing with 500 μl PBS, cells were treated with 250 μl of Krebs buffer (250 mM NaCl, 5.9 mM KCl, 1.2 mM MgCl2, 1.3 mM CaCl2, 25 mM HEPES, 0.1% BSA (w/v), and 2 mM or 16.7 mM glucose; pH 7.4) in the presence or absence of test compound. After incubation for 2 h at 37°C, the assay was terminated by placing the plates on ice and supernatants were transferred to a 96-well plate in preparation for insulin ELISA (Alpco) following manufacturer’s instructions. The cell monolayer was washed twice with 500 μl of PBS and then lysed using 250 μl of 1 N NaOH prior to protein measurement by the method of Bradford (1976).
as §1

[5] = tested on: PC-3 cells; conditions: endogenous; ref [18] (supplement list); cited from earlier work
Excerpt: (§2) Supplement pone.0146846.s004.docx, table 1 | column: Functional assay

[6] = tested on: mC6A; conditions: cited from earlier work
Excerpt: as §2

[7] = tested on: GLUTag cells; conditions: endogenous; ref [17] (supplement list); cited from earlier work
Excerpt: as §2

Structure (SMILES) | inhibition of L-ornithine-stimulated inositol phosphate accumulation [1] | modulation of GPRC6A [2] | reversal of L-ornithine-stimulated GLP-1 release [3] | reversal of L-ornithine-stimulated insulin secretion [4] | pERK1/2 response [5] | IP-One HTRF response ([6]; ref [13] (supplement list)) | cAMP response ([6]; ref [13] (supplement list)) | pERK response ([6]; ref [13] (supplement list)) | cAMP response ([6]; ref [18] (supplement list)) | pERK1/2 response ([6]; ref [18] (supplement list)) | antagonism, Ca^2+i [7] | antagonism, GLP-1 secretion [7]
CC(C)(Cc1ccc2ccccc2c1)NC[C@@H](O)COc1cccc(Cl)c1C#N [NPS-2143] | inositol phosphate accumulation in response to L-ornithine was sensitive to application of the GPRC6A antagonist, NPS-2143; also recorded: can be inhibited with the antagonist | negative allosteric modulators | fully reversed; also recorded: significantly reversed; also recorded: NPS-2143-sensitive | fully reversed | – | – | – | – | – | – | – | –
C[C@]12CC[C@H]3[C@@H](CCC4=CC(=O)CC[C@@]43C)[C@@H]1CC[C@@H]2O [Testosterone] | – | – | – | – | pERK1/2 – response to Testosterone, L-Arg | No response | no response | No specific response | cAMP – response to Testosterone, L-Arg pERK1/2 – response to Testosterone | cAMP – response to Testosterone, L-Arg pERK1/2 – response to Testosterone | – | –
C[C@@H](NCc1cc2ccccc2[nH]1)c1cccc2ccccc12 [calindol] | – | negative allosteric modulators | – | – | – | – | – | – | – | – | antagonist | antagonist
